The text below walks through data of patent US20080318908A1, “USE OF GABA AND GABAB AGONISTS” (TRUSTEES OF TUFTS COLLEGE, priority 2002, published 2008).

Common to all, as to format: cell-based, rat
The test system of experiment [1] is islets. The experiment can be described thus: [3H]thymidine incorporation in islets. Particulars: label present throughout the 4.75 hour experimental period. The procedure:
[^3H]thymidine incorporation was employed as an alternative assay for DNA synthesis, with similar results to those of the fluorescence assay. The labeled nucleotide was added to the culture medium and was present throughout the 4.75 hour experimental period. GABA, and the agonist baclofen, acting via GABAB receptors produced a respective 143±19% and 115±4% increase in [^3H]thymidine incorporation (FIG. 4B).

Another experiment has as its system spleen cells. The experiment can be described thus: DNA content of dissociated cultured spleen, Cyquant assay. Particulars: 100 micromolar for 45 minutes, then four hours in fresh medium at 37°. The procedure: An experiment to test the ability of GABA and the GABAB receptor agonist to stimulate growth of other tissues was undertaken. Rat spleen was mechanically dissociated in trypsin, washed, and plated identical to the experiments using rat islets, described above. The dissociated tissue was cultured in the presence of 100 micromolar GABA or baclofen for 45 minutes and compared to cultured but untreated dissociated spleen. After 45 minutes the media was changed and the tissue incubated in fresh medium for four hours at 37°. DNA measurements were made by the Cyquant assay by Molecular Probes.

The subject of experiment [2] is islets. Kind of experiment: Islet total DNA content, Cyquant fluorescence assay. The procedure:
To examine the potential function of GABAB receptor signaling in islet tissue, islets were enzymatically isolated from exocrine pancreas and studied in vitro. Islets were size-selected for these studies because of our observation that small islets (<150 μm diameter) express GABAB receptors more abundantly. Islets (equivalent to ˜10,000 cells per well of a 96 well culture plate) were incubated for 45 minutes with (or without) 100 μM GABA, washed once with growth medium M199, maintained for 4 hours at 37° C., and subsequently analyzed for total DNA content using a Cyquant (Molecular Probes) fluorescence assay. […] Large islets, by contrast, were much less responsive to GABA; increasing only by 15±4.5% in the same time period. The growth-promoting effect of GABA was mimicked by the selective GABAB receptor agonist, S-baclofen and inhibited with either 2OH-saclofen (a selective inhibitor of GABAB receptors) or the N-terminal antibody to the GABAB receptor (FIG. 4A).
To further evaluate the interactions between glucose and GABAB receptor activation, we measured GABA-mediated proliferation over a range of glucose concentrations.

For experiment [3], the system named is islets. The experiment can be described thus: BrdU labeling of dividing islet cells. Particulars: 4.75 hours; GABA-treated versus control islets. As for the experimental part:
To identify which cells in islets underlie the increase in DNA synthesis, cells treated with GABA were exposed to BrdU, to label the dividing cells, and compared to control cells. […] Given the brief incorporation period (4 hours following GABA exposure), such profiles imply that the responsive cells are likely to be synchronized in S phase.

For experiment [4], the system named is islets. The experiment can be described thus: Glucose-stimulated proliferation in islets (DNA content). As for the experimental part: Others have shown that islet mass can increase by as much as 50% in just 96 hours of glucose infusion in vivo, an effect that results from increases in both cell size and cell number^15. Given that metabolism of glucose alone promotes secretion from β cells, we tested the hypothesis that glucose-stimulated proliferation in islets involves the activation of GABAB receptors by GABA released during glucose application. Islets were exposed to 5.6 mM glucose (a maximal proliferative stimulus in human islets) for 4.75 hours in the presence or absence of 2OH-saclofen or the GBR1 N-terminal antibody. Glucose promoted a small, but significant, 7±1% stimulation of control islets during this time (FIG. 5A).

In the case of `NCC(CC(=O)O)c1ccc(Cl)cc1` (stereo not shown) [baclofen, 4-amino-3-(4-chlorophenyl)butanoic acid, reference compound], in the experiment on islets [1], the “increase in [3H]thymidine incorporation” value is 115±4%. For the same compound, in the experiment on spleen cells, the “DNA content of cultured spleen cells versus untreated” value was “promoted an increase in the DNA content”.
`NC[C@@H](CC(=O)O)c1ccc(Cl)cc1` [S-baclofen, reference compound]: the “growth-promoting effect of GABA mimicked by agonist” value in the experiment with islets [2] (isolated islets, FIG. 4A, 100 μM) is reported as “mimicked”.
For `NCCCC(=O)O` [GABA, 4-aminobutanoic acid], the “increase in [3H]thymidine incorporation” value with islets [1] worked out at 143±19%. Besides, the BrdU incorporation entry in the experiment with islets [3] is “detectable BrdU incorporation”. The “DNA content of cultured spleen cells versus untreated” value in the experiment on spleen cells was “promoted an increase in the DNA content”. In addition, in the experiment with islets [2] (45 min exposure to 100 μM GABA, 5.6 mM glucose), the “GABA-stimulated DNA synthesis at moderate glucose” value is on record as “peaked at moderate glucose concentrations”. In addition, the “GABA-stimulated DNA synthesis at higher glucose” value in the experiment with islets [2] (45 min exposure to 100 μM GABA, 16.7 mM glucose) is on record as “suppressed the stimulatory effect of GABA”. In addition, the “increase in DNA synthesis, large islets” value in the experiment with islets [2] (large islets, 100 μM GABA 45 minutes, same 4.75 hour period) turned out to be 15±4.5%. The “increase in DNA synthesis, small islets” value with islets [2] (small islets (<150 μm diameter), 100 μM GABA 45 minutes, then 4 hours at 37° C., 4.75 hours total) was 45%.
As to `OC[C@H]1OC(O)[C@H](O)[C@@H](O)[C@@H]1O` (stereo partly shown) [Glucose], the “stimulation of control islets (DNA)” value in the experiment on islets [4] (5.6 mM glucose for 4.75 hours) was 7±1%.
Regarding `NCC(O)(CS(=O)(=O)O)c1ccc(Cl)cc1` (stereo not shown) [2OH-saclofen, reference compound], in the experiment on islets [2] (isolated islets with GABA, FIG. 4A, 100 μM antagonist or antibody 1:1000), the “effect on growth-promoting effect of GABA” value is listed as “inhibited”. In the experiment with islets [4] (5.6 mM glucose for 4.75 hours in the presence of 2OH-saclofen), the “DNA, % of DNA content measured at the beginning of the incubation period” value was 92±4%.
